Results reported in ChEMBL document CHEMBL5724914, “Linking interpersonal differences in gut microbiota composition and drug biotransformation activity” (2024).

Columns and labels:
[1] = (§1) The drug is tested on Z-010 corresponding to metagenome with ENA study accession number: PRJEB37062 and ENA sample accession number: ERS12561810 for biotransformation under anaerobic condition. The drug concentrations were measured over 9 timepoints collected between 0 and 24 hours of incubation by liquid-chromatography-coupled mass spectrometry (LC–MS); conditions: 2 µM
[2] = (§2) The drug is tested on WLS-098 corresponding to human gut metagenome with ENA study accession number: PRJEB37062 and ENA sample accession number: ERS12561754 for biotransformation under anaerobic condition. The drug concentrations were measured over 9 timepoints collected between 0 and 24 hours of incubation by liquid-chromatography-coupled mass spectrometry (LC–MS); conditions: 2 µM
[3] = human gut metagenome, 24 h, 2 µM
[4] = as §2, with “Z-013” for “WLS-098”, “rabbit” for “human”, “ERS12561813” for “ERS12561754”; conditions: 2 µM
[5] = human gut metagenome, 24 h, 2 µM; remark: listed apart in the source
[6] = as §2, with “Z-009” for “WLS-098”, “pig” for “human”, “ERS12561809” for “ERS12561754”; conditions: 2 µM
[7] = as §2, with “Z-002” for “WLS-098”, “rabbit” for “human”, “ERS12561802” for “ERS12561754”; conditions: 2 µM
[8] = human gut metagenome, 24 h, 2 µM; remark: listed apart in the source
[9] = as §2, with “Z-017” for “WLS-098”, “mouse” for “human”, “ERS12561816” for “ERS12561754”; conditions: 2 µM
[10] = as §2, with “WLS-240” for “WLS-098”, “ERS12561773” for “ERS12561754”; conditions: 2 µM
[11] = human gut metagenome, 24 h, 2 µM; remark: listed apart in the source
[12] = as §2, with “Z-030” for “WLS-098”, “mouse” for “human”, “ERS12561829” for “ERS12561754”; conditions: 2 µM
[13] = human gut metagenome, 24 h, 2 µM; remark: listed apart in the source
[14] = as §1, with “Z-005” for “Z-010”, “ERS12561805” for “ERS12561810”; conditions: 2 µM
[15] = human gut metagenome, 24 h, 2 µM; remark: listed apart in the source
[16] = human gut metagenome, 24 h, 2 µM; remark: listed apart in the source
[17] = human gut metagenome, 24 h, 2 µM; remark: listed apart in the source
[18] = as §2, with “Z-022” for “WLS-098”, “mouse” for “human”, “ERS12561821” for “ERS12561754”; conditions: 2 µM
[19] = as §2, with “Z-028” for “WLS-098”, “mouse” for “human”, “ERS12561827” for “ERS12561754”; conditions: 2 µM
[20] = human gut metagenome, 24 h, 2 µM; remark: listed apart in the source
Note: call rule not given here.

Compound	Bacterial Biotransformation [1]	Bacterial Biotransformation [2]	Bacterial Biotransformation [3]	Bacterial Biotransformation [4]	Bacterial Biotransformation [5]	Bacterial Biotransformation [6]	Bacterial Biotransformation [7]	Bacterial Biotransformation [8]	Bacterial Biotransformation [9]	Bacterial Biotransformation [10]	Bacterial Biotransformation [11]	Bacterial Biotransformation [12]	Bacterial Biotransformation [13]	Bacterial Biotransformation [14]	Bacterial Biotransformation [15]	Bacterial Biotransformation [16]	Bacterial Biotransformation [17]	Bacterial Biotransformation [18]	Bacterial Biotransformation [19]	Bacterial Biotransformation [20]
CCN(CC)CCNC(C(=O)OCCC(C)C)c1ccccc1.Cl.Cl (stereo unspecified)	Compound metabolized	Compound metabolized	Compound NOT metabolized	Compound NOT metabolized	Compound metabolized	Compound metabolized	Compound metabolized	Compound metabolized	Compound NOT metabolized	Compound metabolized	Compound metabolized	Compound NOT metabolized	Compound metabolized	Compound metabolized	Compound metabolized	Compound NOT metabolized	Compound metabolized	Compound metabolized	Compound NOT metabolized	Compound NOT metabolized
C[C@@H]1CC[C@H]2[C@@H](C)C(=O)O[C@@H]3O[C@@]4(C)CC[C@@H]1[C@]32OO4 [ARTEMISININ]	–	Compound metabolized	Compound metabolized	–	–	–	–	Compound metabolized	–	Compound metabolized	Compound metabolized	Compound metabolized	–	–	–	Compound metabolized	Compound metabolized	Compound metabolized	Compound metabolized	Compound metabolized
CNC(=C[N+](=O)[O-])NCCSCc1csc(CN(C)C)n1 [NIZATIDINE]	Compound NOT metabolized	Compound metabolized	Compound metabolized	Compound NOT metabolized	Compound NOT metabolized	Compound NOT metabolized	Compound NOT metabolized	Compound metabolized	–	Compound NOT metabolized	Compound metabolized	Compound metabolized	Compound metabolized	Compound NOT metabolized	Compound metabolized	Compound metabolized	Compound NOT metabolized	Compound metabolized	Compound NOT metabolized	Compound NOT metabolized
Cc1nc2n(c(=O)c1CCN1CCC(c3noc4cc(F)ccc34)CC1)CCCC2 [RISPERIDONE]	Compound metabolized	–	Compound metabolized	Compound metabolized	Compound metabolized	Compound metabolized	Compound metabolized	Compound metabolized	Compound metabolized	Compound metabolized	Compound metabolized	Compound NOT metabolized	Compound metabolized	Compound metabolized	Compound metabolized	Compound metabolized	Compound metabolized	Compound metabolized	Compound metabolized	Compound metabolized

Results, then the compound that gave them:

Bacterial Biotransformation [1]	Bacterial Biotransformation [2]	Bacterial Biotransformation [3]	Bacterial Biotransformation [4]	Bacterial Biotransformation [5]	Bacterial Biotransformation [6]	Bacterial Biotransformation [7]	Bacterial Biotransformation [8]	Bacterial Biotransformation [9]	Bacterial Biotransformation [10]	Bacterial Biotransformation [11]	Bacterial Biotransformation [12]	Bacterial Biotransformation [13]	Bacterial Biotransformation [14]	Bacterial Biotransformation [15]	Bacterial Biotransformation [16]	Bacterial Biotransformation [17]	Bacterial Biotransformation [18]	Bacterial Biotransformation [19]	Bacterial Biotransformation [20]	Compound
Compound metabolized	Compound metabolized	Compound metabolized	Compound NOT metabolized	Compound metabolized	Compound metabolized	Compound metabolized	Compound metabolized	Compound NOT metabolized	Compound metabolized	Compound metabolized	Compound NOT metabolized	Compound metabolized	Compound metabolized	Compound metabolized	Compound metabolized	Compound metabolized	Compound metabolized	Compound NOT metabolized	Compound metabolized	CCOC(=O)[C@H](CCc1ccccc1)N[C@@H](C)C(=O)N1[C@H](C(=O)O)C[C@@H]2CCC[C@@H]21
–	Compound NOT metabolized	–	Compound metabolized	Compound NOT metabolized	Compound metabolized	Compound NOT metabolized	Compound NOT metabolized	Compound NOT metabolized	Compound NOT metabolized	Compound NOT metabolized	Compound NOT metabolized	Compound NOT metabolized	–	Compound NOT metabolized	Compound NOT metabolized	Compound NOT metabolized	Compound NOT metabolized	–	Compound NOT metabolized	CN1CCc2cccc3c2[C@H]1Cc1ccc(O)c(O)c1-3 [APOMORPHINE]
Compound metabolized	–	Compound metabolized	–	–	–	–	–	–	Compound metabolized	–	Compound metabolized	–	–	Compound metabolized	–	–	Compound metabolized	Compound metabolized	–	C#C[C@]1(O)CC[C@H]2[C@@H]3CCC4=Cc5oncc5C[C@]4(C)[C@H]3CC[C@@]21C [DANAZOL]
Compound NOT metabolized	Compound NOT metabolized	–	Compound NOT metabolized	Compound NOT metabolized	Compound NOT metabolized	Compound NOT metabolized	Compound NOT metabolized	Compound metabolized	Compound NOT metabolized	Compound NOT metabolized	Compound metabolized	Compound NOT metabolized	Compound NOT metabolized	Compound NOT metabolized	Compound metabolized	Compound NOT metabolized	Compound metabolized	Compound metabolized	Compound NOT metabolized	CC[C@H](C)C(=O)O[C@H]1C[C@@H](C)C=C2C=C[C@H](C)[C@H](CC[C@@H]3C[C@@H](O)CC(=O)O3)[C@H]21 [LOVASTATIN]
Compound metabolized	Compound metabolized	Compound metabolized	Compound metabolized	–	Compound metabolized	Compound metabolized	Compound metabolized	Compound metabolized	Compound metabolized	–	Compound NOT metabolized	Compound metabolized	Compound metabolized	–	Compound metabolized	Compound metabolized	Compound NOT metabolized	Compound metabolized	Compound metabolized	COc1c2occc2cc2ccc(=O)oc12 [METHOXSALEN]
Compound NOT metabolized	Compound metabolized	Compound metabolized	Compound NOT metabolized	Compound metabolized	Compound metabolized	–	Compound metabolized	Compound NOT metabolized	Compound metabolized	Compound metabolized	Compound metabolized	Compound metabolized	Compound NOT metabolized	Compound metabolized	Compound metabolized	Compound metabolized	Compound NOT metabolized	–	Compound metabolized	Cc1nc2n(c(=O)c1CCN1CCC(c3noc4cc(F)ccc34)CC1)CCCC2O (stereo unspecified) [PALIPERIDONE]
